We go through eight compounds from article PMC7181051, “Probing the Protein-Protein Interaction between the ATRXADD Domain and the Histone H3 Tail” (Molecules, 2020).

SMILES strings stand for the structures. Read-outs that look alike come from different tables or passages of the source. Where a SMILES comes first, the peptide text is derived from it. [ ]: non-standard residue; d: D form. Lys(Me3) = C[N+](C)(C)CCCC[C@H](N)C(=O)O Bounds are passed on as bounds.

For this assay, the target named is T1, ATRXADD (Homo sapiens, UniProt P46100).
T1 construct: The pGEX-GP-2-ATRX ADD plasmid (Addgene plasmid #59698) [17] was transformed into BL21 cells for expression and purification; GST (N, cleaved yes); peptides GenScript #59698; host or cells: E. coli BL21
T1 sequence (P46100 159-296 limits assumed): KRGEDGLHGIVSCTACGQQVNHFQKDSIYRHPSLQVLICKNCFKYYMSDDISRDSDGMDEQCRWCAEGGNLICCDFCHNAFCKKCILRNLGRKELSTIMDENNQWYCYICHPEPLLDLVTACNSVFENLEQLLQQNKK
The experiment in a line: Fluorescence polarization (FP) displacement assay. The format is binding. The settings on record: for disruption of the H3:ATRXADD PPI in the FP assay, in words: truncated and modified H3 peptides.

[1] abbreviates: disruption of H3_1-15K9me3-FAM (0.75 µM):ATRXADD (5 µM) PPI, PBS, highest concentration tested 100 µM, ND = no displacement, read-out: FP Assay IC50.

Regarding `C[C@H](NC(=O)[C@@H](NC(=O)[C@H](CCC(N)=O)NC(=O)[C@H](CCCC[N+](C)(C)C)NC(=O)[C@@H](N)[C@@H](C)O)[C@@H](C)O)C(=O)N[C@@H](CCCNC(=N)N)C(=O)N[C@@H](CCCC[N+](C)(C)C)C(=O)N[C@@H](CO)C(=O)O` [H3_3-10K4me3K9me3] (H-T[Lys(Me3)]QTAR[Lys(Me3)]S-OH; N-terminus and C-terminus assumed), the IC50 (in general, the concentration that inhibits the measured activity by half) under setting [1] is greater than 100 µM.

Consider `C[C@H](N)C(=O)N[C@@H](CCCNC(=N)N)C(=O)N[C@H](C(=O)N[C@@H](CCCC[N+](C)(C)C)C(=O)N[C@@H](CCC(N)=O)C(=O)N[C@H](C(=O)N[C@@H](C)C(=O)N[C@@H](CCCNC(=N)N)C(=O)N[C@@H](CCCC[N+](C)(C)C)C(=O)N[C@@H](CO)C(=O)N[C@H](C(=O)O)[C@@H](C)O)[C@@H](C)O)[C@@H](C)O` [H3_1-11K4me3K9me3], for which the “disruption of the H3:ATRXADD PPI in the FP assay, in words” value (“disruption of the H3:ATRXADD PPI” below) is on record as “significantly reduced the activity”. The IC50 under setting [1] is no less than 100 µM. On the same counts, the results for `C[C@H](NC(=O)[C@@H](NC(=O)[C@H](CCC(N)=O)NC(=O)[C@H](CCCCN)NC(=O)[C@@H](N)[C@@H](C)O)[C@@H](C)O)C(=O)N[C@@H](CCCNC(=N)N)C(=O)N[C@@H](CCCC[N+](C)(C)C)C(=O)N[C@@H](CO)C(=O)N[C@H](C(=O)O)[C@@H](C)O` [Peptide H3_3-11K9me3] (H-TKQTAR[Lys(Me3)]ST-OH; N-terminus and C-terminus assumed) are “completely abolished activity” and greater than 100 µM. For `C[C@H](NC(=O)[C@@H](NC(=O)[C@H](CCC(N)=O)NC(=O)[C@H](CCCCN)NC(=O)[C@@H](N)[C@@H](C)O)[C@@H](C)O)C(=O)N[C@@H](CCCNC(=N)N)C(=O)O` [Peptide H3_3-8] (H-TKQTAR-OH; N-terminus and C-terminus assumed), the IC50 was greater than 100 µM and the “disruption of the H3:ATRXADD PPI” value was “inactive”. `C[C@H](N)C(=O)N[C@@H](CCCNC(=N)N)C(=O)N[C@@H](CCCC[N+](C)(C)C)C(=O)N[C@@H](CO)C(=O)N[C@H](C(=O)O)[C@@H](C)O` [Peptide H3_7-11K9me3] (H-AR[Lys(Me3)]ST-OH; N-terminus and C-terminus assumed): the IC50 was greater than 100 µM and the “disruption of the H3:ATRXADD PPI” value was “inactive”. `C[C@H](N)C(=O)N[C@@H](CCCNC(=N)N)C(=O)N[C@H](C(=O)N[C@@H](CCCC[N+](C)(C)C)C(=O)N[C@@H](CCC(N)=O)C(=O)N[C@H](C(=O)N[C@@H](C)C(=O)O)[C@@H](C)O)[C@@H](C)O` [Peptide H3_1-7K4me3] (H-ART[Lys(Me3)]QTA-OH): the IC50 is greater than 100 µM. Regarding `C[C@@H](O)[C@H](NC(=O)[C@H](CCC(N)=O)NC(=O)[C@H](CCCCN)NC(=O)[C@@H](NC(=O)[C@@H](N)CCCNC(=N)N)[C@@H](C)O)C(=O)O` [Peptide H3_2-6] (H-RTKQT-OH; N-terminus and C-terminus assumed), the half-inhibitory concentration (IC50) is greater than 100 µM and the “disruption of the H3:ATRXADD PPI” value was “inactive”. For the compound `C[C@@H](O)[C@H](N)C(=O)N[C@@H](CCCCN)C(=O)N[C@@H](CCC(N)=O)C(=O)O` [Peptide H3_3-5] (H-Thr-Lys-Gln-OH; N-terminus and C-terminus assumed), the “disruption of the H3:ATRXADD PPI” value is “inactive”. Further, the half-maximal inhibitory concentration (IC50) under setting [1] is greater than 100 µM.
